Test [1] has as its system PC-3 cells. The test is described as follows: MTT antitumour assay, PC-3. Format: cell-based. As to conditions: human prostate cancer cell line, mean ± SD, n = 3. How it is done:
(§1) The evaluation of the antitumour activity was performed using tetrazolium salt MTT (3-(4,5-dimethyl-2-thiazolyl)-2,5-diphenyl-2H-tetrazolium bromide) assay as reported[62]^,[63].
(§2) The designed compounds were evaluated for their in vitro antitumour effects via the standard 3-(4,5-dimethylthiazol-2-yl)-2,5-diphenyltetrazolium bromide (MTT) method against a panel of four human tumour cell lines; namely, hepatocellular carcinoma cell line (HepG2), breast cancer cell line (MCF-7), human cervical cancer cell line (HeLa), and prostate cancer cell line (PC-3)[62]^,[63]^,[72]. The antitumour activities of the designed compounds 4–12, along with that of the reference drugs 5-FU and afatinib are shown in Table 1.
For orientation: Tetrazolium assays rely on reduction of a dye to a coloured formazan, in cell work by metabolically active cells.

Test [2] deals with HepG2 cells. In words: MTT antitumour assay, HepG2. Format: cell-based. To be noted: human hepato-cellular carcinoma cell line, mean ± SD, n = 3. How it is done:
as §1, §2

The nature of test [3]: ABTS radical cation scavenging (antioxidant) assay. As to conditions: 20 µl of 1 mg/ml test sample (L-ascorbic acid 20 µl, 2 mM). How it is done: The absorbance (Acontrol) of a green-blue solution (ABTS^+ radical solution) resulted from a mixture of ABTS and manganese dioxide (MnO2) and was recorded at λmax 734 nm, according to the reported procedure[64]^,[65]. The absorbance (Atest) was measured upon the addition of 20 µl of 1 mg/ml solution of the test sample in spectroscopic grade methanol/phosphate buffer (1:1 v/v) to the ABTS solution. The decrease in absorbance is expressed as % inhibition, which can be calculated from the following equation: % inhibition = Acontrol-Atest/Acontrol×100.
L-Ascorbic acid 20 µl (2 mM) solution was used as standard antioxidant (positive control). A blank sample was run using only methanol/phosphate buffer (1:1), while the negative control was run with ABTS and the methanol/phosphate buffer.
The assay is based on measuring the ability of the tested compounds to scavenge the long-life radical cation of ABTS[22]^,[43]^,[64]^,[65].

In test [4] the test system is MCF-7 cells. The test is described as follows: MTT antitumour assay, MCF-7. Format: cell-based. To be noted: MCF7, human breast adenocarcinoma cell line, mean ± SD, n = 3. Here is the method: as §1, §2
Test [5] concerns HeLa cells. The test is described as follows: MTT antitumour assay, HeLa. Format: cell-based. To be noted: human cervical epithelioid carcinoma cell line, mean ± SD, n = 3. Here is the method: as §1
The designed compounds were evaluated for their in vitro antitumour effects via the standard 3-(4,5-dimethylthiazol-2-yl)-2,5-diphenyltetrazolium bromide (MTT) method against a panel of four human tumour cell lines; namely, hepatocellular carcinoma cell line (HepG2), breast cancer cell line (MCF-7), human cervical cancer cell line (HeLa), and prostate cancer cell line (PC-3)[62]^,[63]^,[72].

Test [6] concerns HepG2, MCF-7, HeLa, and PC-3 cancer cell lines. The test is described as follows: MTT antitumour assay, range over the four cell lines. As to conditions: Homo sapiens, range over HepG2, MCF-7, HeLa, PC-3 (and over the compounds named), read-out: IC50 range against the tested cell lines. Format: cell-based, human. Here is the method:
as §1, §2

As a reminder, the IC50 is the concentration needed to halve the response being measured. In the case of `O=C1CCCCCC1=Cc1ccc(OC2CCCC2)cc1` [5c, 2-(4-(Cyclopentyloxy)benzylidene)cycloheptanone], the IC50 is 26.9 ± 1.89 µM in test [1] (PC-3, MTT); 71.3 ± 4.53 µM in test [2]; 64.7 ± 4.27 µM in test [4]; 37.5 ± 2.81 µM in test [5]. Moreover, in test [3], the “%Inhibition of the ABTS radical cation” value is 51.0%.

As to `O=C1CCCC1=Cc1ccc(OC2CCCC2)cc1` [5a, 2-(4-(Cyclopentyloxy)benzylidene)cyclopentanone], the IC50 in test [1] (PC-3, MTT) was 94.1 ± 5.82 µM; in test [2], above 100 µM; in test [4] it was above 100 µM; in test [5] it was 77.8 ± 4.41 µM.

Take `O=C1CCCCC1=Cc1ccc(OC2CCCC2)cc1` [5b, 2-(4-(Cyclopentyloxy)benzylidene)cyclohexanone]: the IC50 in test [1] (PC-3, MTT) was determined as 71.1 ± 4.93 µM; in test [2], 55.4 ± 3.95 µM; in test [4], 49.4 ± 3.16 µM; in test [5], 30.1 ± 2.24 µM. In addition, the “%Inhibition of the ABTS radical cation” value in test [3] is given as 51.4%.

Regarding `Cc1ccc(C(=O)C=Cc2ccc(OC3CCCC3)cc2)cc1` [4b, 3-(4-(Cyclopentyloxy)phenyl)-1-(4-methylphenyl)prop-2-en-1-one], the IC50 in test [1] (PC-3, MTT) was 17.1 ± 1.58 µM; in test [2], 20 ± 1.11 µM; in test [4] it was 36.4 ± 2.6 µM; in test [5] it was 18.8 ± 1.57 µM. For the same compound, in test [3], the “%Inhibition of the ABTS radical cation” value is on record as 52.6%.

As to `O=c1[nH]cc(F)c(=O)[nH]1` [5-FU, 5-fluorouracil, reference compound], the IC50 was 8.3 ± 0.35 µM in test [1] (PC-3, MTT); 7.9 ± 0.17 µM in test [2]; 4.8 to 8.3 µM in test [6]; 5.4 ± 0.2 µM in test [4]; 4.8 ± 0.21 µM in test [5].

Take `CN(C)C/C=C/C(=O)Nc1cc2c(Nc3ccc(F)c(Cl)c3)ncnc2cc1O[C@H]1CCOC1` [Afatinib, reference compound]: the IC50 in test [1] (Homo sapiens, PC-3, MTT) was 7.6 µM; in test [1] (MTT), 7.7 ± 0.57 µM; in test [2] it was 5.4 ± 0.25 µM; in test [6], 5.4 to 7.6 µM; in test [4] it was 7.1 ± 0.49 µM; in test [5] it was 6.2 ± 0.67 µM.

As to `CC(=O)C=Cc1ccc(OC2CCCC2)cc1` [4a, 4-(4-(Cyclopentyloxy)phenyl)but-3-en-2-one], the half-inhibitory concentration (IC50) in test [1] (PC-3, MTT) is 21.8 ± 1.68 µM; in test [2], 27.3 ± 1.96 µM; in test [6] it was 21.8 to 40.9 µM; in test [4], 40.9 ± 2.79 µM; in test [5], 25.7 ± 1.97 µM. The “%Inhibition of the ABTS radical cation” value in test [3] was 52.0%.

As to `O=C1O[C@H]([C@@H](O)CO)C(O)=C1O` [Ascorbic acid, L-Ascorbic acid, reference compound], in test [3], the “%Inhibition of the ABTS radical cation” value is given as 90.0%.

Source of the values: article PMC6010098, “Synthesis, antitumour and antioxidant activities of novel α,β-unsaturated ketones and related heterocyclic analogues: EGFR inhibition and molecular modelling study” (Journal of Enzyme Inhibition and Medicinal Chemistry, 2018).
